“And” between values parts separate entries of the source, which are not always exact repeats. Identical values can stand only once. Like-named read-outs stand apart in the source and are kept apart here.
Legend:
[1] = target: T1, WT AtAHAS (Arabidopsis thaliana, UniProt P17597); assay: Ki of herbicides, continuous spectrophotometric AHAS assay; assay type: biochemical
Procedure: (§1) Standard assays were performed using a continuous spectrophotometric method measuring the disappearance of pyruvate. The standard buffer contained 50 mM potassium phosphate, pH 7.2, 1 mM ThDP, 10 mM MgCl2, and 10 µM FAD. The concentration of pyruvate was in the range 100–160 mM, as described in the text, methods, or figure legends.
(§2) Supplementary Figure 6. Measurement of the Ki values for WT AtAHAS and the mutants.
(§3) The error bars represent the standard error of the mean of two independent replicates. [I] =
(§4) inhibitor concentration. Source data are provided with this paper.
(§5) (1 picture or pasted object on this page, not shown here)

[2] = target: T2, AtAHAS W574L mutant (Arabidopsis thaliana, UniProt P17597, W574L); assay: biochemical
Procedure: as §1, §2, §3, §4, §5

[3] = target: T3, AtAHAS S653T mutant (Arabidopsis thaliana, UniProt P17597, S653T); assay: biochemical
Procedure: as §1, §2, §3, §4, §5

[4] = target: T4, AtAHAS P197L mutant (Arabidopsis thaliana, UniProt P17597, P197L); assay: biochemical
Procedure: as §1, §2, §3, §4, §5

[5] = target: T5, AtAHAS P197T mutant (Arabidopsis thaliana, UniProt P17597, P197T); assay: biochemical
Procedure: as §1, §2, §3, §4, §5

[6] = target: T1, WT AtAHAS; conditions: ± standard error of the mean, cited from earlier work
[7] = target: T2, AtAHAS W574L mutant; assay type: biochemical; conditions: NAI = no accumulative inhibition detected
Procedure: as §1
(§6) AtAHAS was assayed in the standard assay buffer containing 160 mM pyruvate, at 30 °C. For AtAHAS activation the progress curve corresponding to the lag-phase was fitted to Eq. (8) of Lonhienne et al.[14]. For the time dependent accumulative inhibition of AtAHAS the progress curves were fitted to Equation 9 of Lonhienne et al.[12].
(§7) Supplementary Figure 8. Measurement of the rate constants of accumulative inhibition for WT AtAHAS and its mutants. The progress curves were fitted to the equation of accumulative inhibition (Equation 7 2). The rate constants of enzyme inactivation ( kiapp) and enzyme recovery (k3) were measured in triplicate. Source data are provided with this paper. […]

[8] = target: T3, AtAHAS S653T mutant; assay type: biochemical
Procedure: as §1, §6, §7

[9] = target: T4, AtAHAS P197L mutant; assay type: biochemical; conditions: NAI = no accumulative inhibition detected
Procedure: as §1, §6, §7

[10] = target: T5, AtAHAS P197T mutant; assay type: biochemical; conditions: P197T, NAI = no accumulative inhibition detected
Procedure: as §1, §6, §7

[11] = target: T1, WT AtAHAS; assay type: biochemical
Procedure: as §1, §6
Supplementary Figure 8. Measurement of the rate constants of accumulative inhibition for WT AtAHAS and its mutants. The progress curves were fitted to the equation of accumulative inhibition (Equation 7 2). The rate constants of enzyme inactivation ( kiapp) and enzyme recovery (k3) were measured in triplicate. Source data are provided with this paper.

[12] = Ki, W574L mutant, ± standard error of the mean
[13] = Ki (Supplementary Figure 6), S653T, fit of % activity remaining vs [I], two independent replicates
[14] = Ki, S653T mutant, ± standard error of the mean
[15] = Ki (Supplementary Figure 6), P197L, fit of % activity remaining vs [I], two independent replicates
[16] = Ki, P197L mutant, ± standard error of the mean
[17] = Ki (Supplementary Figure 6), P197T, fit of % activity remaining vs [I], two independent replicates
[18] = Ki, P197T mutant, ± standard error of the mean
[19] = S653T, 160 mM pyruvate, 30 °C, ± SEM
[20] = S653T, individual replicate of triplicate
[21] = individual replicate of triplicate
[22] = Ki (Supplementary Figure 6), W574L, fit of % activity remaining vs [I], two independent replicates

`COc1cc(OC)n2nc(S(=O)(=O)Nc3c(Cl)ccc(C)c3Cl)nc2n1` [MT, metosulam] showed a Ki ([1]; Ki (Supplementary Figure 6), Wild type AtAHAS, fit of % activity remaining vs [I], two independent replicates) of 28.7 ± 11.2 nM, a Ki ([1]; Ki, WT AtAHAS, ± standard error of the mean) of 29 ± 11.2 nM and a Ki [2, 12] of 39300 ± 3900 nM. For the same compound, the Ki [3, 13] was 66 ± 5.64 nM, the Ki [3, 14] was 66 ± 5.6 nM and the Ki [4, 15] was 1320 ± 131 nM. It also gave a Ki [4, 16] of 1320 ± 130 nM, a Ki [5, 17] of 1130 ± 130 nM and a Ki [5, 18] of 1130 ± 130 nM.

In the case of `COc1cnc(OC)n2nc(NS(=O)(=O)c3c(OCC(F)F)cccc3C(F)(F)F)nc12` [PS, penoxsulam], the Ki ([6]; ref Lonhienne et al.[11]) is listed as 1.9 ± 0.9 nM, the “k3 (rate of recovery)” value ([7]; 160 mM pyruvate, 30 °C) is listed as “NAI” and the “kiapp (apparent rate of enzyme inactivation)” value ([7]; 160 mM pyruvate, 30 °C) is listed as “NAI”. For the same compound, the “kiapp/k3 (efficiency of accumulative inhibition)” value [7] was “NAI”, the “kiapp/k3 (efficiency of accumulative inhibition)” value ([8]; S653T) was 126 and the “efficiency of accumulative inhibition (kiapp/k3) compared to WT (in words)” value ([8]; S653T vs WT) was “increased”. For the same compound, the “k3 (rate of recovery)” value [8, 19] was 0.015 ± 0.001 min⁻¹, the “kiapp (apparent rate of enzyme inactivation)” value [8, 19] was 1.89 ± 0.12 min⁻¹ and the “k3, single progress curve (Supplementary Figure 8)” value [8, 20] was 0.013 min⁻¹ and 0.016 min⁻¹ and 0.015 min⁻¹. The “kiapp, single progress curve (Supplementary Figure 8)” value [8, 20] was 1.78 min⁻¹ and 2.1 min⁻¹ and 1.71 min⁻¹, the “k3 (rate of recovery)” value ([9]; 160 mM pyruvate, 30 °C) was “NAI” and the “kiapp (apparent rate of enzyme inactivation)” value ([9]; 160 mM pyruvate, 30 °C) was “NAI”. The “kiapp/k3 (efficiency of accumulative inhibition)” value [9] was “NAI”, the “k3 (rate of recovery)” value ([10]; 160 mM pyruvate, 30 °C) was “NAI” and the “kiapp (apparent rate of enzyme inactivation)” value ([10]; 160 mM pyruvate, 30 °C) was “NAI”. For the same compound, the “kiapp/k3 (efficiency of accumulative inhibition)” value [10] was “NAI”, the “kiapp/k3 (efficiency of accumulative inhibition)” value [11] was 87 and the “k3 (rate of recovery)” value ([11]; 160 mM pyruvate, 30 °C, ± SEM) was 0.014 ± 0.002 min⁻¹. For the same compound, the “kiapp (apparent rate of enzyme inactivation)” value ([11]; 160 mM pyruvate, 30 °C, ± SEM) was 1.22 ± 0.09 min⁻¹, the “k3, single progress curve (Supplementary Figure 8)” value [11, 21] was 0.017 min⁻¹ and 0.011 min⁻¹ and 0.013 min⁻¹ and the “kiapp, single progress curve (Supplementary Figure 8)” value [11, 21] was 1.4 min⁻¹ and 1.11 min⁻¹ and 1.17 min⁻¹. For the same compound, the Ki [2, 22] was 67100 ± 2970 nM, the Ki [2, 12] was 67100 ± 3000 nM and the “increase in Ki / loss of affinity compared to WT” value ([2]; W574L vs WT) was 35,000 fold. For the same compound, the Ki [3, 13] was 5.04 ± 2.24 nM, the Ki [3, 14] was 5 ± 2.2 nM and the Ki [4, 15] was 81.9 ± 7.26 nM. The Ki [4, 16] was 82 ± 7 nM and the Ki [5, 18] was 85 ± 6.3 nM.

In the case of `COc1cc(OC)nc(Sc2cccc(Cl)c2C(=O)O)n1` [PTB, pyrithiobac], the Ki ([6]; ref Garcia et al.[13]) is given as 179 ± 12 nM, the Ki [2, 22] is given as 91200 ± 8190 nM and the Ki [2, 12] is given as 91200 ± 8200 nM. It also gave a Ki [3, 13] of 218 ± 15.8 nM, a Ki [3, 14] of 218 ± 15.8 nM and a Ki [4, 15] of 1950 ± 194 nM. It also gave a Ki [4, 16] of 2000 ± 200 nM, a Ki [5, 17] of 1460 ± 282 nM and a Ki [5, 18] of 1500 ± 300 nM.
